{
  "source": "patent US20040127577A1",
  "about": "(priority 2002, published 2004)",
  "key": {"[1]": {"system": "SOD1 transgenic mice", "details": "for Mean Survival: drinking water from 60 days of age, N=15", "protocol": "(§1) Another group of 15 mice served as controls.\n(§2) The drugs were administered by drinking water starting at 60 days of age. The daily dosages were calculated based on a daily water intake of 6 ml. Fresh solutions were prepared once a week with the total consumed volume measured in order to ensure a constant daily and weekly dose. […] The study was done blindly, meaning that the treatment and the preparation of the drugs were conducted by separate individuals.\nThe clinical condition of the mice was monitored daily starting at 40 days. The onset of clinical signs was scored by examining the mice for tremors and/or shaking of the limbs, and the position of one or both hind limbs (hanging rather than splaying out) when the mice were suspended in the air by their tail. The age of clinical onset was determined by the age (days) at which loss of splay or tremors of hind limbs were observed. Examining the mice for the loss of righting reflex determined the end stage of the disease. The mice were sacrificed if they could not right themselves within 30 seconds when placed on either side on a flat surface. This decision was made by an independent veterinarian as requested by the animal protocol. The treatment protocol was approved by the Regierungspräsident Tübingen (35/9185.81-3). The treatment and clinical evaluation were conducted by separate individuals, and thus the neurological signs for determining onset and end stage of disease were scored in a blinded manner.\n(§3) Data are expressed as the mean +/−standard error of the mean (SEM). Rotarod testing and weight were compared by analysis of variance (ANOVA). Survival data were analysed by the Mantel-Cox proportional hazard model. Statistical significance was tested by one-way ANOVA followed by post-hoc Student-Newman-Keuls comparison with the SPSS-PC software program (SPSS, Chicago Ill.)."}, "[2]": {"system": "SOD1 transgenic mice", "assay": "Running wheel (rotarod) night activity of SOD1 transgenic mice", "assay_type": "in vivo", "set-up": "unit not given here", "protocol": "as §1, §2\n(§4) Mice were observed daily (including weekends) and weighed weekly. Motor performance was assessed from 40 days of age using the rotarod apparatus to measure the night activity of the mice from 8 p.m.-8 a.m. (LMTB, Berlin). The activity of the animals was recorded individually by a computerized system and assessed daily, including weekends. For statistical evaluation, the rotarod activity was normalized to the mean activity of each animal from day 40 to day 60.\nas §3"}, "[3]": {"system": "SOD1 transgenic mice", "details": "mouse, in vivo", "protocol": "as §2, §4\nThe clinical condition of the mice was monitored daily starting at 40 days. The onset of clinical signs was scored by examining the mice for tremors and/or shaking of the limbs, and the position of one or both hind limbs (hanging rather than splaying out) when the mice were suspended in the air by their tail. The age of clinical onset was determined by the age (days) at which loss of splay or tremors of hind limbs were observed. Examining the mice for the loss of righting reflex determined the end stage of the disease. […]"}},
  "note": "“And” between values parts separate entries of the source, which are not always exact repeats. Identical values can stand only once. Like-named read-outs stand apart in the source and are kept apart here.",
  "data": [
    {"compound": "C#CCN[C@@H]1CCc2ccccc21", "note": "[rasagiline, R(+)-N-propargyl-1-aminoindan]", "values": [
      {"measurement": "Mean Survival", "setting": "[1]; rasagiline 0.5 mg/kg per day", "value": "224 days and 223.8667 days"},
      {"measurement": "Mean Survival", "setting": "[1]; rasagiline 2.0 mg/kg per day", "value": "239.8667 days and 239.8677 days"},
      {"measurement": "increase of life span vs controls", "setting": "[1]; rasagiline 2.0 mg/kg per day, p<0.001", "value": 29, "unit": "days"},
      {"measurement": "running wheel activity", "setting": "[2]; rasagiline 0.5 mg/kg, Weeks 9-12", "value": 10087},
      {"measurement": "running wheel activity", "setting": "[2]; rasagiline 0.5 mg/kg, Weeks 13-16", "value": 9037.14},
      {"measurement": "running wheel activity", "setting": "[2]; rasagiline 0.5 mg/kg, Weeks 17-20", "value": 8124.12},
      {"measurement": "running wheel activity", "setting": "[2]; rasagiline 0.5 mg/kg, Weeks 21-24", "value": 6070.08},
      {"measurement": "running wheel activity", "setting": "[2]; rasagiline 0.5 mg/kg, Weeks 25-28", "value": 4236.96},
      {"measurement": "running wheel activity", "setting": "[2]; rasagiline 0.5 mg/kg, Weeks 29-36", "value": 1196.69},
      {"measurement": "running wheel activity", "setting": "[2]; rasagiline 2.0 mg/kg, Weeks 9-12", "value": 11056},
      {"measurement": "running wheel activity", "setting": "[2]; rasagiline 2.0 mg/kg, Weeks 13-16", "value": 9999.44},
      {"measurement": "running wheel activity", "setting": "[2]; rasagiline 2.0 mg/kg, Weeks 17-20", "value": 8787.09},
      {"measurement": "running wheel activity", "setting": "[2]; rasagiline 2.0 mg/kg, Weeks 21-24", "value": 7873.22},
      {"measurement": "running wheel activity", "setting": "[2]; rasagiline 2.0 mg/kg, Weeks 25-28", "value": 5902.76},
      {"measurement": "running wheel activity", "setting": "[2]; rasagiline 2.0 mg/kg, Weeks 29-36", "value": 2147.29},
      {"measurement": "signs of overt toxicity", "setting": "[3]", "value": "did not observe any signs of overt toxicity"}
    ]},
    {"compound": "Nc1nc2ccc(OC(F)(F)F)cc2s1", "note": "[riluzole, 2-amino-6-trifluoromethoxy benzothiazole]", "values": [
      {"measurement": "running wheel activity", "setting": "[2]; riluzole 30 mg/kg, Weeks 9-12", "value": 9729.58},
      {"measurement": "running wheel activity", "setting": "[2]; riluzole 30 mg/kg, Weeks 13-16", "value": 7556.57},
      {"measurement": "running wheel activity", "setting": "[2]; riluzole 30 mg/kg, Weeks 17-20", "value": 7033.85},
      {"measurement": "running wheel activity", "setting": "[2]; riluzole 30 mg/kg, Weeks 21-24", "value": 4687.05},
      {"measurement": "running wheel activity", "setting": "[2]; riluzole 30 mg/kg, Weeks 25-28", "value": 2696.11},
      {"measurement": "running wheel activity", "setting": "[2]; riluzole 30 mg/kg, Weeks 29-36", "value": 1249.13}
    ]}
  ]
}
